Source: ChEMBL document CHEMBL4732126, “Design, synthesis, and biodistribution studies of new analogues of marine alkaloids: Potent in vitro and in vivo fungicidal agents against Candida spp” (Eur J Med Chem, 2021)
Active and inactive are the calls of the source. The calls are words filed in the database; no cut-off is given here.

Experiments:
Candida albicans [1] = test: Antifungal activity against Candida albicans isolate 8 assessed as reduction in fungal growth incubated for 48 hrs by broth microdilution method; assay type: functional
Pichia kudriavzevii [2] = test: Antifungal activity against Candida krusei ATCC 34135 assessed as reduction in fungal growth incubated for 48 hrs in presence of ergosterol by broth microdilution method; assay type: functional
[3] = Toxicity in Swiss mouse assessed as relative heart weight at 1 mg/kg, ip measured after 24 hrs (reference value: 4.75 +/- 0.60 g); assay type: organism-based; conditions: in vivo
[4] = Toxicity in Swiss mouse assessed as relative kidney weight at 3 mg/kg, ip measured after 24 hrs (reference value: 14.91 +/- 0.99 g); assay type: organism-based; conditions: in vivo
[5] = Toxicity in Swiss mouse infected with Candida albicans ATCC 10231 assessed as effect on liver at 10 mg/kg, ip administered at 2, 24 and 48 hrs post-infection and measured at 24 hrs after last dose by macroscopic analysis; assay type: organism-based; conditions: in vivo, 72 h
Candida albicans [6] = test: Antifungal activity against Candida albicans isolate 11 assessed as reduction in fungal growth incubated for 48 hrs by broth microdilution method; assay type: functional
[7] = Toxicity in Swiss mouse assessed as effect on lung at 0.5 to 10 mg/kg, ip measured after 24 hrs by macroscopic analysis; assay type: organism-based; conditions: in vivo, dose 0.5-10 mg/kg
Candida albicans [8] = test: Antibiofilm activity against Candida albicans ATCC 10231 assessed as reduction in mature biofilm at 125 ug/ml incubated for 48 hrs by crystal violet staining based spectrophotometric analysis relative to control; assay type: functional
Candida albicans [9] = test: Antifungal activity against Candida albicans isolate 13 assessed as reduction in fungal growth incubated for 48 hrs by broth microdilution method; assay type: functional
Candida albicans [10] = test: Antifungal activity against Candida albicans isolate 3 assessed as reduction in fungal growth incubated for 48 hrs by broth microdilution method; assay type: functional
[11] = Toxicity in Swiss mouse infected with Candida albicans ATCC 10231 assessed as reduction in body weight at 10 mg/kg, ip administered at 2, 24 and 48 hrs post-infection and measured at 24 hrs after last dose; assay type: organism-based; conditions: in vivo, 72 h
[12] = Toxicity in Swiss mouse assessed as relative lung weight at 0.5 mg/kg, ip measured after 24 hrs (reference value: 6.35 +/- 0.68 g); assay type: organism-based; conditions: in vivo
[13] = Toxicity in Swiss mouse assessed as death of organism at 0.5 to 20 mg/kg, ip measured for 24 hrs; assay type: organism-based; conditions: in vivo, dose 0.5-20 mg/kg
Candida tropicalis [14] = test: Antifungal activity against Candida tropicalis ATCC 28707 assessed as reduction in fungal growth incubated for 48 hrs by broth microdilution method; assay type: functional
[15] = Toxicity in Swiss mouse assessed as signs of toxicity at 0.5 to 10 mg/kg, ip measured upto 4 hrs; assay type: organism-based; conditions: in vivo, dose 0.5-10 mg/kg
[16] = Toxicity in Swiss mouse assessed as effect on spleen at 0.5 to 10 mg/kg, ip measured after 24 hrs by macroscopic analysis; assay type: organism-based; conditions: in vivo, dose 0.5-10 mg/kg
Candida albicans [17] = test: Fungicidal activity against Candida albicans isolate 6 assessed as fungal killing incubated for 48 hrs followed by plating on SD agar plate; assay type: functional; conditions: read-out: MFC99.9
Candida tropicalis [18] = test: Antifungal activity against Candida tropicalis ATCC 28707 assessed as reduction in fungal growth incubated for 48 hrs in presence of ergosterol by broth microdilution method; assay type: functional
Candida albicans [19] = test: Fungicidal activity against Candida albicans isolate 12 assessed as fungal killing incubated for 48 hrs followed by plating on SD agar plate; assay type: functional; conditions: read-out: MFC99.9
Candida albicans [20] = test: Fungicidal activity against Candida albicans isolate 5 assessed as fungal killing incubated for 48 hrs followed by plating on SD agar plate; assay type: functional; conditions: read-out: MFC99.9
Pichia kudriavzevii [21] = test: Antifungal activity against Candida krusei ATCC 34135 assessed as reduction in fungal growth incubated for 48 hrs by broth microdilution method; assay type: functional
Candida albicans [22] = test: In vivo antifungal activity in Swiss mouse infected with Candida albicans ATCC 10231 assessed as reduction in fungal load in spleen at 0.5 mg/kg, ip administered at 2, 24 and 48 hrs post-infection and measured per gm of organ at 24 hrs post-last dose (reference value: 2.34); assay type: functional; conditions: time 72 hrs
[23] = Toxicity in Swiss mouse assessed as relative kidney weight at 10 mg/kg, ip measured after 24 hrs (reference value: 14.91 +/- 0.99 g); assay type: organism-based; conditions: in vivo
Candida albicans [24] = test: Antifungal activity against Candida albicans isolate 4 assessed as reduction in fungal growth incubated for 48 hrs by broth microdilution method; assay type: functional
Candida albicans [25] = test: Antifungal activity against Candida albicans isolate 10 assessed as reduction in fungal growth incubated for 48 hrs by broth microdilution method; assay type: functional
Nakaseomyces glabratus = test: Antifungal activity against Candida glabrata ATCC 2001 assessed as reduction in fungal growth incubated for 48 hrs in presence of sorbitol by broth microdilution method; assay type: functional
[26] = Toxicity in Swiss mouse assessed as relative kidney weight at 20 mg/kg, ip measured after 24 hrs (reference value: 14.91 +/- 0.99 g); assay type: organism-based; conditions: in vivo
Candida albicans [27] = test: Fungicidal activity against Candida albicans isolate 4 assessed as fungal killing incubated for 48 hrs followed by plating on SD agar plate; assay type: functional; conditions: read-out: MFC99.9
[28] = Toxicity in Swiss mouse assessed as body weight at 1 mg/kg, ip measured after 24 hrs (reference value: 36.25 +/- 0.31 g); assay type: organism-based; conditions: in vivo
Pichia kudriavzevii [29] = test: Fungicidal activity against Candida krusei ATCC 34135 assessed as fungal killing incubated for 48 hrs followed by plating on SD agar plate; assay type: functional; conditions: read-out: MFC99.9
Candida albicans [30] = test: In vivo antifungal activity in Swiss mouse infected with Candida albicans ATCC 10231 assessed as reduction in fungal load in liver at 0.5 mg/kg, ip administered at 2, 24 and 48 hrs post-infection and measured per gm of organ at 24 hrs post-last dose (reference value: 1.80); assay type: functional; conditions: time 72 hrs
Candida albicans [31] = test: Antifungal activity against Candida albicans isolate 6 assessed as reduction in fungal growth incubated for 48 hrs by broth microdilution method; assay type: functional
Candida albicans [32] = test: Antifungal activity against Candida albicans isolate 2 assessed as reduction in fungal growth incubated for 48 hrs by broth microdilution method; assay type: functional
Candida albicans [33] = test: Fungicidal activity against Candida albicans isolate 8 assessed as fungal killing incubated for 48 hrs followed by plating on SD agar plate; assay type: functional; conditions: read-out: MFC99.9
Candida albicans [34] = test: Antifungal activity against Candida albicans ATCC 10231 assessed as reduction in fungal growth incubated for 48 hrs in presence of sorbitol by broth microdilution method; assay type: functional
Candida tropicalis [35] = test: Fungicidal activity against Candida tropicalis ATCC 28707 assessed as fungal killing incubated for 48 hrs followed by plating on SD agar plate; assay type: functional; conditions: read-out: MFC99.9
[36] = Toxicity in Swiss mouse infected with Candida albicans ATCC 10231 assessed as effect on kidney weight at 10 mg/kg, ip administered at 2, 24 and 48 hrs post-infection and measured at 24 hrs after last dose; assay type: organism-based; conditions: in vivo, 72 h
[37] = Toxicity in Swiss mouse assessed as effect on heart at 0.5 to 10 mg/kg, ip measured after 24 hrs by macroscopic analysis; assay type: organism-based; conditions: in vivo, dose 0.5-10 mg/kg
[38] = Toxicity in Swiss mouse assessed as body weight at 0.5 mg/kg, ip measured after 24 hrs (reference value: 36.25 +/- 0.31 g); assay type: organism-based; conditions: in vivo
Candida tropicalis [39] = test: Disruption of cell membrane in Candida tropicalis ATCC 28707 assessed as increase in intracellular leakage at MIC incubated for 24 hrs by UV spectrophotometric analysis; assay type: cell-based
Candida albicans [40] = test: Antifungal activity against Candida albicans isolate 7 assessed as reduction in fungal growth incubated for 48 hrs by broth microdilution method; assay type: functional

## [Cl-].[N-]=[N+]=NCCCCCCCCCCCCOCCCc1ccc[n+](Cc2ccccc2)c1
Candida albicans [1]
  MIC: 3.9 µg/mL
Pichia kudriavzevii [2]
  MIC: 15.6 µg/mL
[3]
  Activity: 5.39 g
[4]
  Activity: 14.73 g
[5]
  Activity: Non-Toxic
Candida albicans [6]
  MIC: 7.8 µg/mL
[7]
  Activity: Non-Toxic
Candida albicans [8]
  inhibition at 125 µg/mL: 40%
Candida albicans [9]
  MIC: 7.8 µg/mL
Candida albicans [10]
  MIC: 7.8 µg/mL
[11]
  Activity: Toxic
[12]
  Activity: 5.57 g
[13]
  Activity: Non-Toxic
Candida tropicalis [14]
  MIC: 7.8 µg/mL
[15]
  Activity: Non-Toxic
[16]
  Activity: Non-Toxic
Candida albicans [17]
  MFC: 31.2 µg/mL
Candida tropicalis [18]
  MIC: 15.6 µg/mL
Candida albicans [19]
  MFC: 7.8 µg/mL
Candida albicans [20]
  MFC: 7.8 µg/mL
Pichia kudriavzevii [21]
  MIC: 3.9 µg/mL
Candida albicans [22]
  Activity: 0 log10CFU
[23]
  Activity: 15.52 g
Candida albicans [24]
  MIC: 1.95 µg/mL
Candida albicans [25]
  MIC: 15.6 µg/mL
Nakaseomyces glabratus
  MIC: 7.8 µg/mL
[26]
  Activity: 15.79 g
Candida albicans [27]
  MFC: 1.95 µg/mL
[28]
  Activity: 37.87 g
Pichia kudriavzevii [29]
  MFC: 7.8 µg/mL
Candida albicans [30]
  Activity: 0 log10CFU
Candida albicans [31]
  MIC: 15.6 µg/mL
Candida albicans [32]
  MIC: 7.8 µg/mL
Candida albicans [33]
  MFC: 7.8 µg/mL
Candida albicans [34]
  MIC: 7.8 µg/mL
Candida tropicalis [35]
  MFC: 15.6 µg/mL
[36]
  Activity: Non-Toxic
[37]
  Activity: Non-Toxic
[38]
  Activity: 37.37 g
Candida tropicalis [39]
  Activity: Active
Candida albicans [40]
  MIC: 1.95 µg/mL
